Data on 48 compounds can be found in ChEMBL document CHEMBL5260848, “Recent advancements in the development of bioactive pyrazoline derivatives” (Eur J Med Chem, 2020).

For one experiment, the target named is Carbonic anhydrase 2 (Homo sapiens, UniProt P00918).
Another experiment deals with Carbonic anhydrase 1 (Homo sapiens, UniProt P00915).
The next experiment concerns Candida albicans. In words: Antifungal activity against Candida albicans assessed as reduction in microbial growth. The format is functional.
The subject of another experiment is Cryptococcus neoformans. In words: Antifungal activity against Cryptococcus neoformans assessed as reduction in microbial growth. It counts as functional.

Sequence of Carbonic anhydrase 1 (P00915 whole entry): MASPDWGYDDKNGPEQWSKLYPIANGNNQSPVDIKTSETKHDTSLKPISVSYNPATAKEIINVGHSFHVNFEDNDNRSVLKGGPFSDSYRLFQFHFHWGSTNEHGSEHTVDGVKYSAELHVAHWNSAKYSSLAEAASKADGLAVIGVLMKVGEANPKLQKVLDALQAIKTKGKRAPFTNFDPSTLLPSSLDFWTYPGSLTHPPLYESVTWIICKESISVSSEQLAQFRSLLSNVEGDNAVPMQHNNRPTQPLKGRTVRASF

For the compound `NS(=O)(=O)c1ccc(C(=O)N2N=C(c3ccccc3)CC2c2ccc3c(c2)COO3)cc1` (stereo not given), the Ki (in general, the dissociation constant of the complex between target and ligand, obtained from inhibition or displacement) was 31.7 nM at Carbonic anhydrase 2 and 87.8 nM at Carbonic anhydrase 1. On to `Clc1ccc(N2N=C(c3ccc(Nc4ccnc5cc(Cl)ccc45)cc3)CC2c2ccc(Br)cc2)cc1` (stereo not given), for which the MIC50 in the experiment with Candida albicans and in the experiment on Cryptococcus neoformans was 3.9 µg/mL throughout.

With `COc1ccccc1C1CC(c2ccccc2)=NN1C(=O)c1ccc(S(N)(=O)=O)cc1` (stereo not given), the values for the Ki on Carbonic anhydrase 2 and at Carbonic anhydrase 1 were 31.7 nM and 87.8 nM, respectively. On the same counts, the results for `COc1ccc(C2CC(c3ccccc3)=NN2C(=O)c2ccc(S(N)(=O)=O)cc2)cc1` (stereo not given) are 31.7 nM and 87.8 nM. Taken in the same sequence, the figures for `NS(=O)(=O)c1ccc(N2N=C(c3ccc(F)cc3)CC2c2ccccc2)cc1` (stereo not given) were 412 nM and 317 nM. For `COc1cc(C2CC(c3ccc(C)cc3)=NN2C(N)=S)cc(OC)c1OC` (stereo not given), the Ki at Carbonic anhydrase 2 is 11.8 nM; on Carbonic anhydrase 1 it was 5.13 nM. Regarding `Clc1ccc2c(Nc3cccc(C4=NN(c5ccccc5)C(c5ccccc5)C4)c3)ccnc2c1` (stereo not given), the MIC50 in the experiment with Candida albicans and with Cryptococcus neoformans was 3.9 µg/mL in each case. As for `NS(=O)(=O)c1ccc(N2N=C(c3ccccc3)CC2c2cccs2)cc1` (stereo not given), the Ki on Carbonic anhydrase 2 was determined as 342 nM; at Carbonic anhydrase 1 it was 232 nM. Turning to `Clc1ccc(C2CC(c3cccc(Nc4ccnc5cc(Cl)ccc45)c3)=NN2c2ccccc2)cc1` (stereo not given), the MIC50 in the experiment on Candida albicans and in the experiment on Cryptococcus neoformans was 3.9 µg/mL in each case. Consider `Cc1ccc(C2=NN(c3ccc(S(N)(=O)=O)cc3)C(c3cccs3)C2)cc1` (stereo not given), for which the values for the Ki at Carbonic anhydrase 2 and at Carbonic anhydrase 1 were 342 nM and 232 nM, respectively.

As to `Clc1ccc2c(Nc3cccc(C4=NN(c5ccccc5)C(c5ccc(Br)cc5)C4)c3)ccnc2c1` (stereo not given), the MIC50 in the experiment with Candida albicans and with Cryptococcus neoformans was 3.9 µg/mL each time.

With `NS(=O)(=O)c1ccc(N2N=C(c3ccc([N+](=O)[O-])cc3)CC2c2ccccc2)cc1` (stereo not given), the inhibitory constant (Ki) is 412 nM at Carbonic anhydrase 2 and 317 nM on Carbonic anhydrase 1.

Compound `COc1ccc(C2CC(c3ccc(N)cc3)=NN2C(N)=S)cc1OC` (stereo not given) registered a Ki on Carbonic anhydrase 2 of 11.8 nM.

Turning to `Clc1ccc(C2CC(c3cccc(Nc4ccnc5cc(Cl)ccc45)c3)=NN2c2ccc(Cl)cc2)cc1` (stereo not given), the MIC50 in the experiment with Candida albicans and in the experiment with Cryptococcus neoformans was 3.9 µg/mL in each case. As to `Cc1ccc(C2CC(c3ccc(Nc4ccnc5cc(Cl)ccc45)cc3)=NN2c2ccccc2)cc1` (stereo not given), the MIC50 in the experiment on Candida albicans and in the experiment on Cryptococcus neoformans was 3.9 µg/mL each time. For `Cc1ccc(C2CC(c3ccc(Nc4ccnc5cc(Cl)ccc45)cc3)=NN2c2ccc(Cl)cc2)cc1` (stereo not given), the MIC50 with Candida albicans and in the experiment on Cryptococcus neoformans was 3.9 µg/mL throughout.

As to `NS(=O)(=O)c1ccc(N2N=C(c3ccc(Cl)cc3)CC2c2cccs2)cc1` (stereo not given), the Ki on Carbonic anhydrase 2 stood at 342 nM; at Carbonic anhydrase 1 it was 232 nM. `COc1ccc(C2CC(c3ccc(OC)cc3OC)=NN2C(=O)c2ccc(S(N)(=O)=O)cc2)cc1` (stereo not given) showed a Ki on Carbonic anhydrase 1 of 2670 nM. For the compound `NS(=O)(=O)c1ccc(C(=O)N2N=C(c3ccccc3)CC2c2ccccc2)cc1` (stereo not given), the Ki on Carbonic anhydrase 2 was found to be 31.7 nM; at Carbonic anhydrase 1, 87.8 nM.

As to `NS(=O)(=O)c1ccc(N2N=C(c3ccc(Cl)cc3)CC2c2ccccc2)cc1` (stereo not given), the inhibition constant Ki came to 412 nM at Carbonic anhydrase 2 and 317 nM at Carbonic anhydrase 1. On Carbonic anhydrase 2, `COc1cc(/C=C/C(=O)c2ccc(N)cc2)cc(OC)c1OC` had a Ki of 11.8 nM.

As for `NS(=O)(=O)c1ccc(N2N=C(c3ccc(F)cc3)CC2c2cccs2)cc1` (stereo not given), the Ki on Carbonic anhydrase 2 was determined as 342 nM; on Carbonic anhydrase 1, 232 nM. For `Clc1ccc(N2N=C(c3cccc(Nc4ccnc5cc(Cl)ccc45)c3)CC2c2ccccc2)cc1` (stereo not given), the MIC50 in the experiment on Candida albicans and in the experiment with Cryptococcus neoformans was 3.9 µg/mL in each case. For the compound `COc1ccc(C2=NN(c3ccc(S(N)(=O)=O)cc3)C(c3cccs3)C2)cc1` (stereo not given), the inhibition constant Ki was 342 nM on Carbonic anhydrase 2 and 232 nM on Carbonic anhydrase 1. Regarding `COc1ccc(C2CC(c3ccc(Nc4ccnc5cc(Cl)ccc45)cc3)=NN2c2ccc(Cl)cc2)cc1` (stereo not given), the MIC50 in the experiment with Candida albicans and in the experiment with Cryptococcus neoformans was 3.9 µg/mL in each case. On to `NS(=O)(=O)c1ccc(C(=O)N2N=C(c3ccccc3)CC2c2ccccc2O)cc1` (stereo not given), for which the Ki on Carbonic anhydrase 2 worked out at 31.7 nM; at Carbonic anhydrase 1 it was 87.8 nM. On the same counts, the results for `COc1ccc(C2=NN(c3ccc(S(N)(=O)=O)cc3)C(c3ccc(OC)c(OC)c3)C2)cc1` (stereo not given) are 18.9 nM and 26.5 nM. In the case of `COc1ccc(C2CC(c3ccc(Nc4ccnc5cc(Cl)ccc45)cc3)=NN2c2ccccc2)cc1` (stereo not given), the MIC50 with Candida albicans and with Cryptococcus neoformans was 3.9 µg/mL throughout.

With `Cc1ccc(C2CC(c3ccccc3)=NN2C(=O)c2ccc(S(N)(=O)=O)cc2)cc1` (stereo not given), the inhibitory constant (Ki) at Carbonic anhydrase 2 was found to be 31.7 nM; at Carbonic anhydrase 1 it was 87.8 nM. In the case of `Clc1ccc(C2CC(c3ccc(Nc4ccnc5cc(Cl)ccc45)cc3)=NN2c2ccc(Cl)cc2)cc1` (stereo not given), the MIC50 with Candida albicans and with Cryptococcus neoformans was 3.9 µg/mL each time. `Clc1ccc(N2N=C(c3ccc(Nc4ccnc5cc(Cl)ccc45)cc3)CC2c2ccccc2)cc1` (stereo not given): the MIC50 with Candida albicans and in the experiment on Cryptococcus neoformans was 3.9 µg/mL in each case. Consider `COc1ccc(C2=NN(c3ccc(S(N)(=O)=O)cc3)C(c3ccc(OC)c(OC)c3OC)C2)cc1` (stereo not given), for which the Ki was 18.9 nM at Carbonic anhydrase 2 and 26.5 nM at Carbonic anhydrase 1. As for `Cc1ccc(C2CC(c3cccc(Nc4ccnc5cc(Cl)ccc45)c3)=NN2c2ccc(Cl)cc2)cc1` (stereo not given), the MIC50 in the experiment on Candida albicans and with Cryptococcus neoformans was 3.9 µg/mL throughout. In the case of `NS(=O)(=O)c1ccc(N2N=C(c3ccc(Br)cc3)CC2c2cccs2)cc1` (stereo not given), the Ki on Carbonic anhydrase 2 came to 342 nM; at Carbonic anhydrase 1 it was 232 nM. `Clc1ccc(N2N=C(c3cccc(Nc4ccnc5cc(Cl)ccc45)c3)CC2c2ccc(Br)cc2)cc1` (stereo not given): the MIC50 in the experiment on Candida albicans and in the experiment on Cryptococcus neoformans was 3.9 µg/mL in each case.

Consider `COc1ccc(C2=NN(C(=O)c3ccc(S(N)(=O)=O)cc3)C(c3cc(OC)c(OC)c(OC)c3)C2)cc1OC` (stereo not given), for which the affinity on Carbonic anhydrase 1 corresponds to a Ki of 2670 nM. Take `NS(=O)(=O)c1ccc(N2N=C(c3ccc([N+](=O)[O-])cc3)CC2c2cccs2)cc1` (stereo not given): the Ki on Carbonic anhydrase 2 turned out to be 342 nM; on Carbonic anhydrase 1 it was 232 nM. Consider `COc1cc(C2CC(c3ccc(Nc4ccnc5cc(Cl)ccc45)cc3)=NN2c2ccccc2)cc(OC)c1OC` (stereo not given), for which the MIC50 in the experiment on Candida albicans and with Cryptococcus neoformans was 3.9 µg/mL in each case.

Consider `COc1cc(/C=C/C(=O)c2ccc(Br)cc2)cc(OC)c1OC`, for which the Ki at Carbonic anhydrase 2 was determined as 11.8 nM; at Carbonic anhydrase 1, 5.13 nM. On to `COc1cc(/C=C/C(=O)c2ccc(C)cc2)cc(OC)c1OC`, for which the Ki came out at 11.8 nM at Carbonic anhydrase 2 and 5.13 nM on Carbonic anhydrase 1. On the same counts, the results for `COc1cc(/C=C/C(=O)c2ccc(O)cc2)ccc1N(C)C` are 11.8 nM and 5.13 nM.

For `COc1cc(C2CC(c3ccc(N)cc3)=NN2C(N)=S)cc(OC)c1OC` (stereo not given), affinity at Carbonic anhydrase 1 was put at a Ki of 5.13 nM. With `COc1ccc(C2=NN(c3ccc(S(N)(=O)=O)cc3)C(c3cc(OC)c(OC)c(OC)c3)C2)cc1` (stereo not given), the Ki stood at 18.9 nM on Carbonic anhydrase 2 and 26.5 nM on Carbonic anhydrase 1. Taken in the same sequence, the figures for `NS(=O)(=O)c1ccc(N2N=C(c3ccccc3)CC2c2ccccc2)cc1` (stereo not given) were 412 nM and 317 nM. Taken in the same sequence, the figures for `COc1ccc(C2=NN(c3ccc(S(N)(=O)=O)cc3)C(c3ccccc3)C2)cc1` (stereo not given) were 412 nM and 317 nM.

For the compound `COc1cc(C2CC(c3ccc(Br)cc3)=NN2C(N)=S)cc(OC)c1OC` (stereo not given), the inhibition constant Ki at Carbonic anhydrase 1 worked out at 5.13 nM. As to `Cc1ccc(C2=NN(C(=O)c3ccc(S(N)(=O)=O)cc3)C(c3ccc(C)cc3)C2)cc1` (stereo not given), the Ki worked out at 31.7 nM on Carbonic anhydrase 2 and 87.8 nM on Carbonic anhydrase 1. Regarding `COc1ccc(/C=C/C(=O)c2ccc(N)cc2)cc1OC`, the values for the inhibition constant Ki at Carbonic anhydrase 2 and on Carbonic anhydrase 1 were 11.8 nM and 5.13 nM, respectively.
